From the supplement of paper PMC10307832

Columns and labels:
Experiment in all cases: relative viability (nuclei count vs DMSO), 5 days (fraction); higher = more cells survive
MK-8033 + Linsitinib = compound: Cn1cc(-c2cnc3ccc4ccc(CS(=O)(=O)NCc5ccccn5)cc4c(=O)c3c2)cn1 [MK-8033] + C[C@]1(O)C[C@@H](c2nc(-c3ccc4ccc(-c5ccccc5)nc4c3)c3c(N)nccn32)C1 [Linsitinib] (partner 1 µM)
Method in brief: (§1)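 Values are medians from duplicate plates. Each reflects relative viability, defined as the nuclei count of treated wells over that of vehicle wells. Lung cancer cell lines in 1536-well plates were pin-tool dosed one day after seeding with one drug alone or with a fixed anchor-drug dose plus five library-drug doses (not always all listed) in √10 steps, then fixed, stained and imaged at 4× after 5 days.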

RU-SKI 43 + Foretinib = compound: CC[C@@H](C)CNCC(=O)N1CCC2=C([C@@H]1COC3=CC=CC(=C3)C)C=CS2 [RU-SKI 43] + COc1cc2c(Oc3ccc(NC(=O)C4(C(=O)Nc5ccc(F)cc5)CC4)cc3F)ccnc2cc1OCCCN1CCOCC1 [Foretinib] (partner 0.25 µM)
Method in brief: as §1

RU-SKI 43 + Linsitinib = compound: CC[C@@H](C)CNCC(=O)N1CCC2=C([C@@H]1COC3=CC=CC(=C3)C)C=CS2 [RU-SKI 43] + C[C@]1(O)C[C@@H](c2nc(-c3ccc4ccc(-c5ccccc5)nc4c3)c3c(N)nccn32)C1 [Linsitinib] (partner 1 µM)
Method in brief: as §1

MK-8033 + Tozasertib = compound: Cn1cc(-c2cnc3ccc4ccc(CS(=O)(=O)NCc5ccccn5)cc4c(=O)c3c2)cn1 [MK-8033] + Cc1cc(Nc2cc(N3CCN(C)CC3)nc(Sc3ccc(NC(=O)C4CC4)cc3)n2)n[nH]1 [Tozasertib] (partner 0.1 µM)
Method in brief: as §1

Cell Line | relative viability (MK-8033 + Linsitinib; first compound 0.02 µM) | relative viability (MK-8033 + Linsitinib; first compound 0.06325 µM) | relative viability (MK-8033 + Linsitinib; first compound 0.2 µM) | relative viability (MK-8033 + Linsitinib; first compound 0.6325 µM) | relative viability (MK-8033 + Linsitinib; first compound 2 µM) | relative viability (RU-SKI 43 + Foretinib; first compound 0.1 µM) | relative viability (RU-SKI 43 + Foretinib; first compound 0.3162 µM) | relative viability (RU-SKI 43 + Foretinib; first compound 1 µM) | relative viability (RU-SKI 43 + Foretinib; first compound 3.162 µM) | relative viability (RU-SKI 43 + Foretinib; first compound 10 µM) | relative viability (RU-SKI 43 + Linsitinib; first compound 0.1 µM) | relative viability (RU-SKI 43 + Linsitinib; first compound 0.3162 µM) | relative viability (RU-SKI 43 + Linsitinib; first compound 1 µM) | relative viability (RU-SKI 43 + Linsitinib; first compound 3.162 µM) | relative viability (RU-SKI 43 + Linsitinib; first compound 10 µM) | relative viability (MK-8033 + Tozasertib; first compound 0.02 µM) | relative viability (MK-8033 + Tozasertib; first compound 0.06325 µM) | relative viability (MK-8033 + Tozasertib; first compound 0.2 µM) | relative viability (MK-8033 + Tozasertib; first compound 0.6325 µM) | relative viability (MK-8033 + Tozasertib; first compound 2 µM)
NCI-H1355 | 0.735 | 0.7 | 0.762 | 0.795 | 0.828 | 0.914 | 1.22 | 1.01 | 1.02 | 0.936 | 0.941 | 0.864 | 0.844 | 0.97 | 0.84 | 0.572 | 0.524 | 0.513 | 0.526 | 0.398
NCI-H1395 | 1.09 | 1.05 | 1.08 | 1.03 | 0.892 | 0.865 | 0.985 | 1.05 | 1.01 | 1 | 0.994 | 1.43 | 1.1 | 0.968 | 1.15 | 0.757 | 0.651 | 0.735 | 0.76 | 0.707
NCI-H1437 | 0.976 | 1.01 | 0.94 | 1.01 | 0.917 | 1.22 | 1.24 | 1.37 | 1.2 | 1.22 | 1.13 | 1.26 | 1.15 | 1.04 | 0.91 | 0.408 | 0.424 | 0.401 | 0.395 | 0.372
NCI-H1651 | 1.07 | 0.835 | 0.824 | 1.03 | 0.856 | 0.896 | 0.849 | 0.864 | 0.888 | 0.848 | 1.08 | 1.34 | 1.09 | 0.959 | 0.908 | 0.746 | 0.667 | 0.734 | 0.524 | 0.557
NCI-H1666 | 0.872 | 0.754 | 0.83 | 0.66 | 0.81 | 0.922 | 0.96 | 0.926 | 0.773 | 0.848 | 0.854 | 0.916 | 0.8 | 0.714 | 0.568 | 0.588 | 0.587 | 0.589 | 0.648 | 0.614
NCI-H1734 | 0.904 | 0.769 | 0.852 | 0.93 | 0.858 | 0.844 | 0.913 | 0.938 | 0.781 | 0.656 | 0.905 | 0.818 | 0.918 | 0.934 | 0.791 | 0.243 | 0.215 | 0.3 | 0.261 | 0.242
NCI-H1755 | 0.996 | 0.993 | 0.954 | 0.988 | 0.946 | 0.935 | 1.07 | 0.975 | 0.979 | 0.919 | 1.02 | 1.13 | 1.05 | 1.02 | 0.993 | 0.552 | 0.473 | 0.536 | 0.537 | 0.536
NCI-H1793 | 0.915 | – | 0.775 | 0.858 | 0.782 | 0.602 | 0.68 | 0.738 | 0.762 | 0.502 | 0.98 | 0.959 | 0.988 | 0.928 | 0.809 | 0.332 | 0.325 | 0.34 | 0.416 | 0.23
NCI-H1915 | 1.12 | 1.07 | 1.09 | 1.08 | 1.15 | 1.19 | 1.23 | 1.17 | 1.15 | 1.14 | 1.11 | 1.18 | 1.23 | 1.11 | 1.11 | 0.435 | 0.424 | 0.391 | 0.439 | 0.362
NCI-H1944 | 1.2 | – | 1.12 | 1.23 | 1.37 | 0.812 | 0.878 | 0.918 | 1.01 | 0.819 | 1.24 | 1.2 | 1.34 | 1.24 | 1.15 | 0.237 | 0.218 | 0.209 | 0.261 | 0.23
NCI-H1975 | 0.925 | 0.957 | 0.873 | 0.956 | 0.905 | 1.09 | 1.28 | 1.01 | 0.922 | 0.939 | 0.985 | 1.1 | 0.951 | 0.996 | 0.869 | 0.725 | 0.608 | 0.677 | – | 0.352
NCI-H1993 | 0.773 | 0.766 | 0.73 | 0.751 | 0.687 | 0.747 | 0.889 | 0.786 | 0.801 | 0.729 | 0.745 | 0.732 | 0.661 | 0.721 | 0.762 | 0.564 | 0.525 | 0.561 | 0.525 | 0.583
NCI-H2009 | 1.21 | 1.12 | 1.07 | 1.21 | 1.11 | 1.21 | 1.42 | 1.31 | 1.24 | 1.17 | 1.2 | 1.23 | 1.24 | 1.21 | 1.16 | 0.776 | 0.703 | 0.694 | 0.707 | 0.737
NCI-H2023 | 0.651 | 0.533 | 0.473 | 0.536 | 0.415 | 0.954 | 1.1 | 0.82 | 0.828 | 0.558 | 0.597 | 0.748 | 0.661 | 0.675 | 0.697 | 0.374 | 0.273 | 0.251 | 0.221 | 0.122
NCI-H2085 | 0.831 | 0.797 | 0.837 | 0.943 | 0.825 | 0.928 | 0.772 | 0.91 | 0.93 | 0.934 | 0.929 | 0.875 | 1.01 | 0.917 | 0.772 | 0.812 | 0.708 | 0.73 | 0.841 | 0.593
NCI-H2087 | 1.15 | 0.973 | 0.832 | 0.91 | 0.915 | 1.07 | 1.25 | 1.24 | 1.28 | 0.961 | 1.04 | 1.08 | 0.95 | 0.853 | 1.02 | 0.241 | 0.266 | 0.237 | 0.246 | 0.247
NCI-H2126 | 0.727 | 0.659 | 0.673 | 0.686 | 0.715 | 1.09 | 1.05 | 1.17 | 1.28 | 1.33 | 0.683 | 0.698 | 0.717 | 0.762 | 0.702 | 0.773 | 0.749 | 0.772 | 0.841 | 0.79
NCI-H2228 | 0.577 | 0.629 | 0.537 | 0.761 | 0.625 | 0.769 | 0.988 | 0.879 | 0.863 | 0.726 | 0.858 | 0.507 | 0.828 | 0.885 | 0.427 | 0.199 | 0.214 | 0.168 | 0.253 | 0.214
NCI-H2347 | 0.884 | 0.855 | 0.958 | 0.977 | 0.895 | 1.04 | 1.04 | 1.34 | 0.842 | 1.06 | 1 | 1.19 | 1.07 | 0.94 | 1.01 | 0.545 | 0.574 | 0.584 | 0.552 | 0.436
NCI-H2405 | 0.882 | 0.91 | 0.783 | 0.831 | 0.957 | 1.08 | 1.03 | 1.04 | 1.09 | 1.05 | 0.866 | 0.941 | 0.732 | 0.857 | 0.808 | 0.735 | 0.726 | 0.724 | 0.734 | 0.789
NCI-H3122 | 1.01 | 1.04 | 0.993 | 1.04 | 1.02 | 0.941 | 1.05 | 1 | 0.994 | 0.972 | 0.992 | 1.05 | 1.09 | 1.12 | 1.08 | 0.53 | 0.374 | 0.383 | 0.369 | 0.323
PC-3 [JPC-3] | 0.947 | – | 0.863 | 0.961 | 0.987 | 1.02 | 1.04 | 1.11 | 1.06 | 0.976 | 0.885 | 0.956 | 1.03 | 1.02 | 0.866 | 0.856 | 0.825 | 0.806 | 0.878 | 0.787
PC-14 | 0.978 | 0.843 | 0.859 | 0.939 | 0.858 | 0.872 | 1.15 | 1.02 | 1.07 | 0.909 | 0.962 | 1 | 1.05 | 1.07 | 0.939 | 0.607 | 0.539 | 0.482 | 0.594 | 0.519
RERF-LC-KJ | 0.885 | 0.902 | 0.836 | 0.908 | 0.938 | 0.849 | 0.976 | 0.812 | 0.959 | 0.913 | 0.946 | 1.04 | 0.915 | 0.943 | 0.895 | 0.493 | 0.485 | 0.457 | 0.393 | 0.408
SK-LU-1 | 1.14 | 1.14 | 0.951 | 1.05 | 0.878 | 0.831 | 0.979 | 0.826 | 0.836 | 0.638 | 1.06 | 1.22 | 1.26 | 1.18 | 0.917 | 0.328 | 0.35 | 0.304 | 0.327 | 0.312
SK-MES-1 | 1.06 | 0.995 | 1.04 | 1.09 | 1.09 | 1.09 | 1.04 | 0.97 | 1.1 | 0.907 | 1.03 | 1.1 | 1.18 | 1.04 | 1.01 | 0.902 | 0.825 | 0.872 | 0.886 | 0.822
SW 1573 | 0.799 | 0.721 | 0.764 | 0.749 | 0.684 | 0.997 | 1.21 | 0.843 | 1.04 | 0.887 | 0.884 | 0.824 | 0.841 | 0.692 | 0.688 | 0.175 | 0.214 | 0.187 | 0.223 | 0.232
